Test results reported in patent US8008492B2, “Compounds that act as a vehicle for delivery through the blood-brain barrier and charge delivery vehicle constructions” (priority 2006, dated 2011).

Assays:
[1] = Immobilized artificial membrane chromatography (IAMC); type: physicochemical; conditions: isocratic, phosphate buffer pH 7.4 and 20% MeCN
Excerpt: To evaluate the BBB-shuttles and BBB-shuttle-cargo constructs, a chromatographic technique, IAMC (immobilized artificial membrane chromatography) developed by Pidgeon was used (cf. A. Albert, Chemical aspects of selective toxicity. Nature 1958, vol. 182, pp. 421-423). This technique uses phospholipid molecules covalently immobilized to silica particles at high density as the stationary phase. It has been used to purify membrane proteins, to immobilize enzymes and to predict transport across biological barriers. […] IAMC interactions include ionic, lipophilic and hydrogen bonding interactions that can be combined under a parameter known as phospholipophilicity. […] The compounds were detected by UV absorption at 220 nm. […] The retention times (tr) were transformed into capacity factors (kIAM) according to the following equation: kIAM=(tr−t0)/t0, where tr is the retention time of the studied compound and t0 is the retention time of a compound that would not be retained by the column (e.g. citric acid). As a control, propranolol was studied. BBB-shuttles and the BBB-shuttle-cargo constructs were also evaluated by IAMC (Immobilized Artificial Membrane Chromatography), a chromatographic technique that measures the phospholipophilicity of our compounds, their tendency to interact with phosphatidylcholine covalently immobilized. See results in Table 6 and 7.

[2] = Parallel artificial membrane permeability assay (PAMPA); type: in vitro ADME, porcine; conditions: 200 μM initial, pH 7.4, 4 hours, room temperature; for Effective permeability Pe: triplicate
Excerpt: Parallel artificial membrane permeability assay (PAM PA). The evaluation method chosen is the Parallel Artificial Membrane Permeability Assay (PAMPA), which allows to predict or evaluate only this transport mechanism. In general terms, this method is simple, automatizable with high throughput, has a low cost and require only a small amount of test compound. The PAMPA method originally introduced by Kansy at Roche uses an artificial membrane in the form of filter supported phospholipids bilayers ([…] al., “Physicochemical high throughput screening: Parallel artificial membrane permeability assay in the description of the absorption processes” J. Med. Chem. 1998, vol. 41, pp. 1007-1010). The phospholipid membrane mimics the cell membrane, but has no means for active or paracellular transport of drug molecules. It is a very convenient tool to evaluate the transport of compounds by passive diffusion. This technique allows the evaluation of pure compounds, crudes or even mixtures of compounds. PAMPA assay is used to determine the ability of the BBB shuttle-cargo constructs to cross the BBB by passive diffusion. […] The compound of interest was dissolved to the desired concentration (200 μM). The PAMPA sandwich was separated and the donor well was filled with 200 μL of the compound solution to be studied. The acceptor plate was placed into the donor plate making sure that the underside of membrane was in contact with buffer. 4 μL of mixture of phospholipids (20 mg/mL) in dodecane were added into each well and 200 μL of buffer solution were added to the each acceptor well. The plate was covered and incubated at room temperature in a saturated humidity atmosphere for 4 hours under orbital agitation at 100 rpm. […] The transport was also confirmed by MALDI-TOF spectrometry and HPLC-MS of aliquotes of the acceptor wells. The mixture of phospholipids used is a porcine polar brain lipid extract. […] The effective permeability was calculated using the following equation: [formula] where: • t time (hours) • CA(t) Compound concentration at the acceptor well at time t • CD(t0) Compound concentration at the donor well at 0 h As a control, the transport of propranolol was evaluated in parallel and a mass balance was calculated for all the studied compounds in order to detect if retention in the phospholipids occur. The different compounds were evaluated by PAMPA assay.

O=C(O)[C@H]1O[C@@H](Oc2cc3oc(-c4ccccc4)cc(=O)c3c(O)c2O)[C@H](O)[C@@H](O)[C@@H]1O [Baicalin, baicalin, reference compound]
Capacity factor kIAM ([1]; baicalin constructs): 1.24

CN1C(=O)C(Cc2ccc(NC(=O)C3OC(Oc4cc5oc(-c6ccccc6)cc(=O)c5c(O)c4O)C(O)C(O)C3O)cc2)NC(=O)C1Cc1ccccc1 (centres unmarked) [Compound 5a, DKP Phe(p-NH—CO-baicalin)-N-MePhe]
Log Pe ([2]; baicalin constructs): −7.7 | Effective permeability Pe ([2]; baicalin constructs): 1.33 10^−8 cm/s | Capacity factor kIAM ([1]; baicalin constructs): 2.42

CN1C(=O)C(Cc2ccc(NC(=O)C3OC(Oc4cc5oc(-c6ccccc6)cc(=O)c5c(O)c4O)C(O)C(O)C3O)cc2)NC(=O)C1CC1CCCCC1 (centres unmarked) [Compound 5b, DKP Phe(p-NH—CO-baicalin)-N-MeCha]
Log Pe ([2]; baicalin constructs): −6.4 | Effective permeability Pe ([2]; baicalin constructs): 3.65 10^−7 cm/s | Capacity factor kIAM ([1]; baicalin constructs): 6.09

CN1C(=O)C(Cc2ccc(NC(=O)C3OC(Oc4cc5oc(-c6ccccc6)cc(=O)c5c(O)c4O)C(O)C(O)C3O)cc2)NC(=O)C1Cc1ccc2ccccc2c1 (centres unmarked) [Compound 5c, DKP Phe(p-NH—CO-baicalin)-N-Me2Nal]
Log Pe ([2]; baicalin constructs): −5.4 | Effective permeability Pe ([2]; baicalin constructs): 3.70 10^−6 cm/s | Capacity factor kIAM ([1]; baicalin constructs): 10.66

CN1C(=O)C(Cc2ccc(NC(=O)C3OC(Oc4cc5oc(-c6ccccc6)cc(=O)c5c(O)c4O)C(O)C(O)C3O)cc2)NC(=O)C1Cc1ccc2ccc3cccc4ccc1c2c34 (centres unmarked) [Compound 5d, DKP Phe(p-NH—CO-baicalin)-N-Me1PyrenylAla]
Log Pe ([2]; baicalin constructs): −8.7 | Effective permeability Pe ([2]; baicalin constructs): 0.19 10^−8 cm/s | Capacity factor kIAM ([1]; baicalin constructs): >100

CN1C(=O)C(Cc2ccc(NC(=O)C3OC(Oc4cc5oc(-c6ccccc6)cc(=O)c5c(O)c4O)C(O)C(O)C3O)cc2)NC(=O)C1CCc1ccccc1 (centres unmarked) [Compound 5e, DKP Phe(p-NH—CO-baicalin)-N-MeHomoPhe]
Log Pe ([2]; baicalin constructs): −9.3 | Effective permeability Pe ([2]; baicalin constructs): 0.05 10^−8 cm/s | Capacity factor kIAM ([1]; baicalin constructs): 4.15

CCCCCCC1C(=O)NC(Cc2ccc(NC(=O)C3OC(Oc4cc5oc(-c6ccccc6)cc(=O)c5c(O)c4O)C(O)C(O)C3O)cc2)C(=O)N1C (centres unmarked) [Compound 5f, DKP Phe(p-NH—CO-baicalin)-N-MeOct]
Log Pe ([2]; baicalin constructs): −6.3 | Effective permeability Pe ([2]; baicalin constructs): 4.97 10^−7 cm/s | Capacity factor kIAM ([1]; baicalin constructs): 10.47

CN1C(=O)C(Cc2ccc(NCC(=O)NCCc3ccc(O)c(O)c3)cc2)NC(=O)C1Cc1ccccc1 (centres unmarked) [Compound 6a, DKP Phe(p-NH—CH2—CO—NH-dopamine)-N-MePhe]
Log Pe ([2]; dopamine constructs): −7.4 | Effective permeability Pe ([2]; dopamine constructs): 3.61 10^−8 cm/s | Capacity factor kIAM ([1]; dopamine constructs): 3.54

CN1C(=O)C(Cc2ccc(NCC(=O)NCCc3ccc(O)c(O)c3)cc2)NC(=O)C1CC1CCCCC1 (centres unmarked) [Compound 6b, DKP Phe(p-NH—CH2—CO—NH-dopamine)-N-MeCha]
Log Pe ([2]; dopamine constructs): −7.6 | Effective permeability Pe ([2]; dopamine constructs): 2.28 10^−8 cm/s | Capacity factor kIAM ([1]; dopamine constructs): 0.86

CN1C(=O)C(Cc2ccc(NCC(=O)NCCc3ccc(O)c(O)c3)cc2)NC(=O)C1Cc1ccc2ccccc2c1 (centres unmarked) [Compound 6c, DKP Phe(p-NH—CH2—CO—NH-dopamine)-N-Me2Nal]
Log Pe ([2]; dopamine constructs): −6.9 | Effective permeability Pe ([2]; dopamine constructs): 11.5 10^−8 cm/s | Capacity factor kIAM ([1]; dopamine constructs): 16.14

CN1C(=O)C(Cc2ccc(NCC(=O)NCCc3ccc(O)c(O)c3)cc2)NC(=O)C1Cc1ccc2ccc3cccc4ccc1c2c34 (centres unmarked) [Compound 6d, DKP Phe(p-NH—CH2—CO—NH-dopamine)-N-Me(1PyrenylAla)]
Log Pe ([2]; dopamine constructs): −7.7 | Effective permeability Pe ([2]; dopamine constructs): 1.90 10^−8 cm/s | Capacity factor kIAM ([1]; dopamine constructs): >100

CN1C(=O)C(Cc2ccc(NCC(=O)NCCc3ccc(O)c(O)c3)cc2)NC(=O)C1CCc1ccccc1 (centres unmarked) [Compound 6e, DKP Phe(p-NH—CH2—CO—NH-dopamine)-N-MeHomoPhe]
Log Pe ([2]; dopamine constructs): −8.1 | Effective permeability Pe ([2]; dopamine constructs): 0.76 10^−8 cm/s | Capacity factor kIAM ([1]; dopamine constructs): 3.15

CCCCCCC1C(=O)NC(Cc2ccc(NCC(=O)NCCc3ccc(O)c(O)c3)cc2)C(=O)N1C (centres unmarked) [Compound 6f, DKP Phe(p-NH—CH2—CO—NH-dopamine)-N-MeOct]
Log Pe ([2]; dopamine constructs): −6.5 | Effective permeability Pe ([2]; dopamine constructs): 32.1 10^−8 cm/s | Capacity factor kIAM ([1]; dopamine constructs): 15.47

NCCc1ccc(O)c(O)c1 [Dopamine, dopamine, reference compound]
Capacity factor kIAM ([1]; dopamine constructs): 0.30
